Drawing on the METLIN SMRT retention time set (Domingo-Almenara et al. 2019), this text covers RP-LC retention time for 80 compounds.

The series can be described thus: gradient 5% acetonitrile 3 min, to 50% in 2 min, to 85% in 15 min, held 3 min, 100 µL/min. As to conditions: column: Zorbax Extend-C18 2.1 x 50 mm; eluents: water / acetonitrile, 0.1% formic acid. Summed up:
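The mobile phases were water and acetonitrile, each with 0.1% formic acid, pumped at 100 μL/min through a Zorbax Extend-C18 column (2.1 × 50 mm, 1.8 μm). Pure standards were injected as mixtures of ~100 molecules and detected by a quadrupole time-of-flight mass spectrometer in positive and negative ionization mode. Retention time came from computationally picked adduct peaks, each inspected by hand.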
Take `O=C(C1CCCN(c2ncnc3c2nc2n3CCCCC2)C1)N1CCN(c2ccc(F)cc2)CC1` (stereo not given): the RP-LC retention time amounted to 829 s.

For `COc1ccccc1CNS(=O)(=O)c1cc(-c2cc(C(F)(F)F)on2)sc1C`, the RP-LC retention time worked out at 1120 s.

Compound `CNS(=O)(=O)c1cccnc1Nc1ccc(F)cc1` returned an RP-LC retention time of 863 s.

Regarding `O=C(Cn1ccn2nc(-c3ccccc3)c(CO)c2c1=O)Nc1ccc2c(c1)CCC2`, the RP-LC retention time came out at 906 s.

Compound `CCCS(=O)(=O)N1CCO[C@@H](COC)[C@@H]1c1ccccc1` registered an RP-LC retention time of 850 s.

`COc1cc(OC)cc(C(=O)Nc2ccc3c(c2)Sc2ncccc2C(=O)N3C(C)C)c1`: the RP-LC retention time was determined as 916 s.

`Cc1oc(C2CCC2)nc1C(=O)N1CCN(Cc2ccc3c(c2)OCO3)CC1` displayed an RP-LC retention time of 583 s.

In turn, `COCCCn1c(=O)c2ccccc2n(Cc2nc(-c3ccc(OC)c(OC)c3)no2)c1=O` registered an RP-LC retention time of 876 s.

`C=CCn1nnc(NCc2ccc(-c3cc(Cl)ccc3Cl)o2)n1`: the RP-LC retention time turned out to be 1130 s.

For the compound `CCc1cccc(NC(=O)Cn2c(=O)n(-c3cccc(C)c3)c(=O)c3c2cc(C)n3C)c1`, the RP-LC retention time worked out at 966 s.

In turn, `COC(=O)c1ccccc1NC(=O)Cn1c(=O)n(-c2ccc(F)cc2)c(=O)c2c1cc(C)n2C` returned an RP-LC retention time of 933 s.

Compound `COc1ccc(NC(=O)C2(C)CCCCC(=O)N2)cc1F` (stereo not given) gave an RP-LC retention time of 690 s.

In turn, `CCN(CC)C(=O)c1ccc(-c2nc3cc(NS(=O)(=O)c4ccc(F)c(F)c4)ccc3n2C)cc1` displayed an RP-LC retention time of 724 s.

Turning to `COCC(C)(O)CNC(=O)c1cccnc1SC` (stereo not given), the RP-LC retention time turned out to be 577 s.

`COC(=O)CCSCC(=O)Nc1nnc(C)s1`: the RP-LC retention time amounted to 602 s.

Compound `Cc1cnc(C)n1CC1CCN(S(=O)(=O)c2ccc(C#N)cc2)C1` (stereo not given) gave an RP-LC retention time of 628 s.

Regarding `Cc1c(Cc2ccccc2)[n+](=O)c2ccccc2n1[O-]`, the RP-LC retention time is 1020 s.

Take `CCN(CC)C(=O)C1CCCN(C(=O)c2nn(C)c3c2CN(C(=O)C2CCC2)CC3)C1` (stereo not given): the RP-LC retention time was 681 s.

Turning to `Cc1cccc(-c2nnc(Cc3nc(-c4cccs4)no3)o2)c1`, the RP-LC retention time came out at 979 s.

On to `CC(C)C(=O)N1CCc2[nH]nc(C(=O)NCCCc3ccccc3)c2C1`, for which the RP-LC retention time came out at 756 s.

Regarding `CN(C)c1ccc(CNC(=O)C2CCN(S(=O)(=O)c3ccc4c(c3)NC(=O)CO4)CC2)cc1`, the RP-LC retention time was 598 s.

Turning to `O=C(NCc1ccc2c(c1)OCO2)C1CCCN(c2cnc3ccccc3n2)C1` (stereo not given), the RP-LC retention time is 736 s.

On to `COc1ccccc1OCCNC(=O)C1CC(=O)N(c2n[nH]c3ccccc23)C1` (stereo not given), for which the RP-LC retention time was found to be 682 s.

`O=C1c2ccccc2C(=O)N1c1nc(-c2ccccc2)cs1` registered an RP-LC retention time of 864 s.

In turn, `CCn1cc(S(=O)(=O)N2CC(Oc3cccc(-c4nc(C)no4)c3)C2)cn1` gave an RP-LC retention time of 839 s.

With `O=C(Cc1cccs1)Nc1ccc2c(c1)CCC(=O)N2`, the RP-LC retention time came to 620 s.

Regarding `Cc1ccc(C(=O)N2CCN(c3nc(CN4CCOCC4)cs3)CC2)cc1`, the RP-LC retention time is 651 s.

As to `CC1(C(=O)NCc2ccc(F)c(Cl)c2)Oc2cccnc2NC1=O` (stereo not given), the RP-LC retention time stood at 730 s.

In the case of `COc1cccc(CC(=O)N2CCC3(CC2)N=C(c2ccccc2)NO3)c1`, the RP-LC retention time was determined as 802 s.

As for `CCOc1ccc(-c2nc(-c3ccc(NS(=O)(=O)c4cccs4)cc3)no2)cc1`, the RP-LC retention time was found to be 1170 s.

`COc1ccc(Cl)cc1NC(=O)N1CCC(n2c(C)nc3cccnc32)CC1`: the RP-LC retention time worked out at 682 s.

In the case of `CC1CCN(c2ccc(-c3noc(CN(C)C4CCCCC4)n3)cn2)CC1`, the RP-LC retention time amounted to 720 s.

As for `CC1CCc2nc3ncn(CC(=O)NCc4cccc(Br)c4)c(=O)c3cc2C1` (stereo not given), the RP-LC retention time was 825 s.

`CC(=O)Nc1ccc(C2(C(=O)O)CCC2)cc1` returned an RP-LC retention time of 637 s.

In the case of `O=C1CCCc2c1cc(C(=O)N1CCCCC1)c(=O)n2-c1ccc(F)cc1`, the RP-LC retention time came to 704 s.

Regarding `O=C(Nc1ccccc1)N1C[C@@H]2C(=O)N(CCc3ccccc3)C(=O)[C@@H]2C1`, the RP-LC retention time came out at 789 s.

Consider `CCCOC(=O)c1cnc2nc(C)ccc2c1NCc1ccc2c(c1)OCO2`, for which the RP-LC retention time amounted to 734 s.

Compound `COCc1nnc(-c2ccc(F)cc2)o1` yielded an RP-LC retention time of 740 s.

`COc1ccc(Cl)cc1S(=O)(=O)N1CCCC(Cn2cnc3cccnc32)C1` (stereo not given) yielded an RP-LC retention time of 708 s.

In the case of `COc1cccc(-c2nc3cnccn3c2NCCC(=O)Nc2ccc3c(c2)OCCO3)c1`, the RP-LC retention time stood at 672 s.

With `Cn1nc(-c2nnc(-c3ccc(F)cc3)o2)c2c1CCN(S(=O)(=O)c1cc(F)cc(F)c1)C2`, the RP-LC retention time was 922 s.

For the compound `CCOc1ccc(-c2csc(Cc3nc(-c4ccc5c(c4)OCO5)no3)n2)cc1`, the RP-LC retention time was 1200 s.

For the compound `O=C(NC(Cc1ccccc1)c1nnc(N2CCCCCC2)o1)C1CC1` (stereo not given), the RP-LC retention time is 788 s.

Compound `O=C(NCCc1csc(C2CCCN(C(=O)C3(c4ccccc4)CC3)C2)n1)C1CC1` (stereo not given) returned an RP-LC retention time of 762 s.

`NC(=O)C1CCN(C(=O)CN2CCC(Cc3ccccc3)CC2)CC1`: the RP-LC retention time turned out to be 591 s.

`CCn1cc(CN2CCC(C(=O)NC(C)c3ccccc3)CC2)c2cc(Cl)ccc21` (stereo not given) gave an RP-LC retention time of 753 s.

For `CN(C)c1nc(Cl)nc2c1nc(Cl)n2C1CCCCO1` (stereo not given), the RP-LC retention time turned out to be 1130 s.

As to `Cc1ccc(-c2nc3ccccn3c2NC(=O)NCc2ccccc2)cc1`, the RP-LC retention time worked out at 657 s.

For `Cc1cc(=O)n(Cc2cccc(Br)c2)c(Nc2ccc(F)c(F)c2)n1`, the RP-LC retention time was 1270 s.

As for `CCc1cccc(NC(=O)Cc2csc3nc(-c4ccc(C)c(C)c4)cn23)c1`, the RP-LC retention time worked out at 962 s.

`Cc1nc(-c2ccc3c(c2)n(CC(=O)NC(C)(C)C)c(=O)n3C(C)C)no1` registered an RP-LC retention time of 810 s.

For the compound `Cc1cc(C)cc(NC(=O)Cn2cccc2-c2nnc(C3CCC3)o2)c1`, the RP-LC retention time worked out at 920 s.

Turning to `Cc1ccc(-c2csc(-n3nc(C)c(CC(=O)Nc4ccc(Br)cc4)c3C)n2)cc1`, the RP-LC retention time was 1350 s.

Compound `Cc1ccccc1CNc1nnc(-c2nc(C3CC3)no2)c2ccccc12` registered an RP-LC retention time of 936 s.

As for `CCn1ccc(C(=O)NCC23CCC=C2N(CC2CC2)C(=O)CC3)n1` (stereo not given), the RP-LC retention time came to 770 s.

Turning to `Cc1ccc(Cn2cccc2C(=O)C(=O)NCc2ccco2)cc1C`, the RP-LC retention time is 1070 s.

Compound `Cc1ccc(-c2nc(CCN(C)C(=O)NCc3ccccc3)no2)cc1` returned an RP-LC retention time of 905 s.

`COc1cc(-c2nc(Cn3ccn4nc(-c5ccccc5)cc4c3=O)c(C)o2)cc(OC)c1OC`: the RP-LC retention time is 990 s.

`COc1cc2c(cc1OC)C(C(=O)NCc1ccc(C)o1)C1c3ccccc3CCN1C2=O` (stereo not given): the RP-LC retention time was 946 s.

`Cc1c(Cl)ccc2c(=O)c3c([nH]c12)CCN(CC(=O)NCc1ccc2c(c1)OCO2)C3` returned an RP-LC retention time of 666 s.

`CCn1cc(C(=O)NCc2ccccn2)c(S(=O)(=O)N2CCSCC2)n1` displayed an RP-LC retention time of 647 s.

Take `O=C(c1ccc2c(c1)N(Cc1ccccc1)CCS2)N1CCN(c2ccccn2)CC1`: the RP-LC retention time came to 698 s.

As to `CC(C)CCNC(=O)c1ccc2c(c1)nc1n2CCN(C2CCCCC2)C1=O`, the RP-LC retention time is 815 s.

The compound `Cc1nc(-c2ccccc2)nc2c1CCC(=O)N2Cc1cccnc1` gave an RP-LC retention time of 673 s.

Consider `CC(Cc1cccc(C(F)(F)F)c1)NCCCc1ccccc1` (stereo not given), for which the RP-LC retention time came out at 868 s.

As for `COc1ccc(C2(C(N)=O)CC2)cc1`, the RP-LC retention time is 682 s.

Consider `Cc1cc2c(cc1S(=O)(=O)N1CCCC1C(=O)NCc1ccc(F)cc1)OCC(=O)N2` (stereo not given), for which the RP-LC retention time was 712 s.

In turn, `COc1ccc(-c2csc(C)n2)cc1S(=O)(=O)N(C)c1cccc(C)c1` registered an RP-LC retention time of 1050 s.

The compound `Cc1ccc(CNC(=O)C2CCc3nc(N4CCOCC4)ncc3C2)cc1` (stereo not given) had an RP-LC retention time of 723 s.

For `Cc1ccc(NC(=O)CN2CCc3ccccc3C2C(=O)N2CCCCC2)cc1C` (stereo not given), the RP-LC retention time turned out to be 900 s.

The compound `CCC(C(=O)NCc1ccccc1)n1cnc2nc3c(cc2c1=O)CCCC3` (stereo not given) gave an RP-LC retention time of 774 s.

Compound `NC(=O)C1CCN(S(=O)(=O)c2ccc(N3C(=O)CCS3(=O)=O)cc2)CC1` showed an RP-LC retention time of 622 s.

In turn, `CCN(CC)C(=O)Cn1ccn2nc(-c3ccccc3)c(CO)c2c1=O` showed an RP-LC retention time of 721 s.

In the case of `CCCNc1cc(N2CCCC(CCC(=O)NCc3ccc(F)cc3)C2)ncn1` (stereo not given), the RP-LC retention time is 683 s.

For the compound `Cc1ccc(C)c(-c2csc(Nc3ccc(Cl)cc3)n2)c1`, the RP-LC retention time worked out at 1340 s.

Compound `CN(C)CCn1nnc2cc(-c3noc(-c4ccccc4)n3)ccc21` displayed an RP-LC retention time of 651 s.

In the case of `COc1ccc(N2CCCCn3c2nc2c3c(=O)n(C)c(=O)n2C)cc1`, the RP-LC retention time came out at 759 s.

For `Cc1ccc(N2CCN(c3nccn4c(=O)n(CC(=O)Nc5ccc(F)c(Cl)c5)nc34)CC2)cc1`, the RP-LC retention time turned out to be 1040 s.

Regarding `Cc1nn(-c2ccc(N3CCOCC3)nn2)c(C)c1CCC(=O)NCc1ccco1`, the RP-LC retention time turned out to be 633 s.

In turn, `Cc1ccc(CNC(=O)c2nc(-c3oc4c(C)cccc4c3C)no2)o1` showed an RP-LC retention time of 1080 s.
